target: Human TRPA1 (Homo sapiens (Human), UniProt O75762); test: FLIPR based intracellular Ca2+ assay and membrane potential assay, AITC-activated TRPA1; assay type: cell-based; conditions: hTRPA1 transiently expressed in HEK293-F cells, AITC as agonist
Experimental: Molecular biology and transient expression were performed as described in Chen, J. et al., Journal of Biomolecular Screening 2007, 12, 61-69. Briefly, TRPA1 full length cDNA was amplified from human dorsal root ganglia total RNA (BD Bioscience Clontech, Palo Alto, Calif., USA) and was cloned into pcDNA3.1/V5-His Topo vector (Invitrogen, Carlsbad, Calif.). Large scale transient transfection was performed using the FreeStyle™ 293 Expression System as recommended by the manufacturer (Invitrogen). HEK293-F cells were grown in suspension in flasks (cell volume 30 ml, to 1 liter) or in a Wave Bioreactor (Wave Biotech, Somerset, N.J. (6 liters). To support high density, suspension culture and transfection, cells were cultured in Free Style 293 media, an optimized, serum free formulation. 293fectin™ (Invitrogen) was used as transfection reagent. In a transfection of 3×10^7 cells (30 mL volume), 30 μg of plasmid DNA and 40 μL 293 fectin were used. For a larger volume transfection, each reagent was scaled up proportionally. Two days post-transfection, cells were harvested by centrifugation (1000×g, 5 minutes) and resuspended to a density of 1.5×10^7 cells/mL in freezing medium (Freestyle media/10% serum/10% DMSO). Cells were transferred into cryovials in 2 mL aliquots, and these vials were placed in Nalgene Mr. Frosty slow-freeze devices (Sigma-Aldrich, St. Louis, Mo.) at −80° C. As needed, vials were removed from −80° C. and quickly thawed in a 37° C. water bath. Cells were aseptically transferred into conical tubes containing Freestyle media (10 mL/vial). After centrifugation at 1,000×g for 3-5 minutes, medium was removed by aspiration and cells were resuspended in Freestyle medium at desired densities (typically 1×10^6 cells/mL). Re-suspended cells were seeded into black-walled clear-bottom 96-well Biocoat™ poly-D-lysine assay plated (BD Biosciences, Bedford, Mass.) (10^5 cells/well) and incubated overnight at 37° C. under a humidified 5% CO2 atmosphere.
Ca^2+ influx was measured using a FLIPR calcium assay kit (R8033; Molecular Devices, Sunnyvale, Calif.). The Ca^2+ indicator dye was dissolved in Hanks' balanced salt solution supplemented with 20 mM HEPES buffer (HBSS/HEPES) according to the manufacturer instructions. Prior to start of the assay, the medium was removed by aspiration, and cells were loaded with 100 μL Ca^2+ dye for 2 to 3 hours at room temperature. AITC (allyl isothiocyanate) was used to activate and open the channels. (4×) solutions of the test compounds were prepared in HBSS/HEPES, and 50 μL were added to the cells at a delivery rate of 10 μL/sec. Changes in fluorescene were measured over time in a fluorometric imaging plate reader (FLIPR), Molecular Devices). Two additions were made over the course of an experimental run. For agonist experiments, assay buffer was added at the 10 s time point, followed by addition of agonist at the 3 minute 10 sec time point. For antagonist experiments, the antagonist was added at the 10 sec time point, followed by addition of the agonist 3 minutes later. Final assay volume for both the agonist and antagonist experiments was 200 μL. Total length of an experimental run was 6.5 minutes.
Data was analyzed with GraphPad Prism® software (GraphPad Software, San Diego, Calif.), using a four-parameter logistic Hill equation to curve-fit concentration-effect data and derive EC50 or IC50 values. Numerical values are reported as mean±SEM (n=number of experiments). SEM is calculated by dividing the standard deviation by the square root of the sample size […].
Changes in membrane potential were measured in hTRPA1-expressing LSTT cells using a FLIJPR membrane potential assay kit (R8034, Molecular Devices). The procedure for thawing and plating the LSTT cells was identical to the Ca^2+ influx assay (see above). […]

Sequence of Human TRPA1 (O75762 whole entry): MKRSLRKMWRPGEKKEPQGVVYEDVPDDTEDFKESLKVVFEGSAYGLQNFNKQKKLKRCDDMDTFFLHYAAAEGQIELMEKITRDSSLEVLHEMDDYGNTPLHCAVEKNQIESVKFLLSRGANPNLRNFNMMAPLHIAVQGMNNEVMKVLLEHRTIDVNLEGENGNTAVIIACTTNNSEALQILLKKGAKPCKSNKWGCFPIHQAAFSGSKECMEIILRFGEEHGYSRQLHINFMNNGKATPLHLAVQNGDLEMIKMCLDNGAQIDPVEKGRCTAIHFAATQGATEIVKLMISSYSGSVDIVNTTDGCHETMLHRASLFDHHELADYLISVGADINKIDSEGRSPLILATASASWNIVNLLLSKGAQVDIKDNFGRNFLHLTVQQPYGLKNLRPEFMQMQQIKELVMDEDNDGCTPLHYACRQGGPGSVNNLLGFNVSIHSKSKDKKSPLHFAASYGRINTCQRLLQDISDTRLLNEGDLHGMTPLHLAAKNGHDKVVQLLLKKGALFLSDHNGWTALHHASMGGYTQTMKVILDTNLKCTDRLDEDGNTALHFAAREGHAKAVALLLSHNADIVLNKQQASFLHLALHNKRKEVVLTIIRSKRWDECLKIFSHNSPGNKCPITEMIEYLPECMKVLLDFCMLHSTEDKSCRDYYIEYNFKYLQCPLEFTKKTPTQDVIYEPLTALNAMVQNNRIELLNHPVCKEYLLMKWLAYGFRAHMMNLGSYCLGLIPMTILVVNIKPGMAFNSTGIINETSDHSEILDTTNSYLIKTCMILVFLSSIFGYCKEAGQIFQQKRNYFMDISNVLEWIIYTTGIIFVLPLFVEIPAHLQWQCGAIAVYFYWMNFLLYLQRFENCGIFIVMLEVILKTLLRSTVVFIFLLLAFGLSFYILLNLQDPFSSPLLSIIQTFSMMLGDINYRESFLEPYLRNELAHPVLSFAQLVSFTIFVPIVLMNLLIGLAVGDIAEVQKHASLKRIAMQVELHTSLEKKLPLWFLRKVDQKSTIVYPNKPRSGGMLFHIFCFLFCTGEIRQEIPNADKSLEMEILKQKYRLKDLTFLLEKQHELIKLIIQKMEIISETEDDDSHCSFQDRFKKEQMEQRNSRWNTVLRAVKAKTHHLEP

Compound | IC50
CCC(=N\O)/C(C)=C/c1ccc(OC)nc1 [Example 3, (1E,3E)-1-(6-methoxypyridin-3-yl)-2-methylpent-1-en-3-one oxime] | 23.4 µM
CCC(=N\O)/C(C)=C/c1cncc2ccccc12 [Example 11, (1E,3E)-1-(isoquinolin-4-yl)-2-methylpent-1-en-3-one oxime] | > 100 µM
CCC(=N\O)/C(C)=C/c1ccc(C(F)(F)F)nc1 [Example 10, (1E,3E)-2-methyl-1-[6-(trifluoromethyl)pyridin-3-yl]pent-1-en-3-one oxime] | > 100 µM
CCC(=N\O)/C(C)=C/c1ccc(C)nc1 [Example 7, (1E,3E)-2-methyl-1-(6-methylpyridin-3-yl)pent-1-en-3-one oxime] | > 100 µM
CCC(=N\O)/C(C)=C/c1cnccc1C [Example 9, (1E,3E)-2-methyl-1-(4-methylpyridin-3-yl)pent-1-en-3-one oxime] | > 100 µM
CCC(=N\O)/C(C)=C/c1cccs1 [Example 2, (1E,3E)-2-methyl-1-thien-2-ylpent-1-en-3-one oxime] | 11 µM
CCC(=N\O)/C(C)=C/c1ccncc1 [Example 6, (1E,3E)-2-methyl-1-pyridin-4-ylpent-1-en-3-one oxime] | 8.61 µM
CCC(=N\O)/C(C)=C/c1cccnc1 [Example 5, (1E,3E)-2-methyl-1-pyridin-3-ylpent-1-en-3-one oxime] | 17 µM
CCC(=N\O)/C(C)=C/c1cnc2ccccc2c1 [Example 8, (1E,3E)-2-methyl-1-quinolin-3-ylpent-1-en-3-one oxime] | > 100 µM
CCC(=N\O)/C(C)=C/c1ccc(F)nc1 [Example 1, (1E,3E)-1-(6-fluoropyridin-3-yl)-2-methylpent-1-en-3-one oxime] | 1.25 µM
CCC(=N\O)/C(C)=C/c1ccsc1 [Example 4, (1E,3E)-2-methyl-1-thien-3-ylpent-1-en-3-one oxime] | 1.32 µM
